Measured values from patent publication US10364222B2, “Cyclic amine derivative and medical use thereof” (Toray Industries, Inc., priority 2016, dated 2019).

Experiments:
[1] = test system: IL-17 production in mouse splenocytes; experiment: Suppressive effect on IL-17 production by IL-23 stimulation in mouse splenocytes; type: cell-based; details: Splenocyte, 72 h, at 5 μmol/L of the test compound, 10 ng/mL human IL-23, 3 days, read-out: IL-17 production inhibition rate (%)
How it was run: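 Splenocytes from male C57BL/6J mice (3×10^5/well, with 100 U/mL human IL-2) stimulated with 10 ng/mL human IL-23 plus compound (0.1% DMSO) for 3 days at 37 °C. Supernatant IL-17 measured by ELISA; inhibition calculated against unstimulated and IL-23-only wells.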

[2] = test system: imiquimod-induced mouse psoriasis model; experiment: Imiquimod-induced mouse psoriasis model; type: in vivo; details: BALB/c mice; 10 mg/kg orally once daily from 3 to 7 days after induction; vs vehicle, Student's t-test P<0.05
Method: Using increase in the ear thickness as an index of exacerbation of symptoms, the effect of the cyclic amine derivative (I) or a pharmacologically acceptable salt thereof in an imiquimod-induced mouse psoriasis model was evaluated. The imiquimod-induced mouse psoriasis model was prepared by a partially modified method by Schaper et al. (The Journal of Dermatological Science, 2013, Vol. 71, No. 1, p. 29-36).
BALB/c mice (male, 7 weeks old) (Charles River Laboratories Japan, Inc.) were used at 8 weeks old after preliminary breeding. To induce psoriasis-like symptoms, 5 mg each of BESELNA CREAM 5% was applied once daily to the outside of the right and left auricles of the mice for 8 days from the day of first administration of imiquimod (hereinafter referred to as induction day) to 7 days after induction (dose of imiquimod, 0.5 mg/body/day).
The test compound at a dose of 10 mg/kg was administered to the mice once daily for 5 days from 3 days after induction to 7 days after induction. As the test compound, the compound of Example 20, the compound of Example 29, and the compound of Example 57 were used. The compound of Example 20, the compound of Example 29, and the compound of Example 57 were suspended in a 0.5 w/v % methylcellulose solution and orally administered. The group in which the compound of Example 20 was administered to mice was defined as the Example-20 compound administration group, the group in which the compound of Example 29 was administered was defined as the Example-29 compound administration group, and the group in which the compound of Example 57 was administered was defined as the Example-57 compound administration group. In the vehicle administration group, a vehicle of each test compound (0.5 w/v % methylcellulose solution) was similarly administered.
The right and left ear thickness before administration of imiquimod (before induction) on the induction day and the right and left ear thickness on the 8th day after induction were measured with a digital micrometer (Mitutoyo Corporation). […]

Row | Compound | inhibition at 5 µM [1] [%] | change in the ear thickness (ear thickness on the 8th day after induction − before induction) [2]
1 | CN(CC(=O)N1CCCC[C@@H]1C(=O)Nc1ccc(-c2ccccc2OC(F)(F)F)c(Cl)c1)S(C)(=O)=O [Example 29, (R)-N-(2-chloro-2′-(trifluoromethoxy)-[1,1′-biphenyl]-4-yl)-1-(2-(N-methylmethylsulfonamide)acetyl)piperidine-2-carboxamide] | 100 | statistically significantly suppressed
2 | O=C(Nc1ccc(-c2ccccc2OC(F)(F)F)c(Cl)c1)[C@H]1CCCCN1C(=O)Cn1cnnn1 [Example 57, (R)-1-(2-(1H-tetrazol-1-yl)acetyl)-N-(2-chloro-2′-(trifluoromethoxy)-[1,1′-biphenyl]-4-yl)piperidine-2-carboxamide] | 101 | statistically significantly suppressed
3 | CC(=O)N1CCCC[C@@H]1C(=O)Nc1ccc(-c2ccccc2OC(F)(F)F)c(Cl)c1 [Example 20, (R)-1-acetyl-N-(2-chloro-2′-(trifluoromethoxy)-[1,1′-biphenyl]-4-yl)piperidine-2-carboxamide] | 99.7 | statistically significantly suppressed
